Reference: US20260007758A1, “SO[…]-2 RECEPTOR (SST2R) NON-PEPTIDE DRUG CONJUGATES AND USES THEREOF” (Crinetics Pharmaceuticals, Inc., priority 2024, published 2026)

Legend:
Type in all cases: cell-based
[1] = molecular target: T1, human somatostatin receptor subtype 2 (Homo sapiens, UniProt P30874); assay: Functional assay for SSTR2 agonists (HTRF cAMP); details: CHO-K1 cells stably expressing human SST2; NKH477-stimulated cAMP; 20 min at 37 C; read-out: hSST2 cAMP Avg EC50
T1 construct: expressed in transfected cells
Excerpt: General overview: All five SSTR subtypes are Gi coupled G-protein coupled receptors (GPCRs) that lead to decreases in intracellular cyclic AMP (cAMP) when activated by an agonist. Therefore, measurement of intracellular cAMP levels can be used to assess whether compounds of the invention are agonists of SSTR subtypes (John Kelly, Troy Stevens, W. Joseph Thompson, and Roland Seifert, Current Protocols in Pharmacology. 2005, 2.2.1-2.2). One example of an intracellular cAMP assay is described below.
Four days prior to the assay, 2,000 Chinese hamster ovary cells (CHO-K1, ATCC #CCL-61) stably expressing the human somatostatin receptor subtype 2 are plated in each well of a 96-well tissue culture-treated plate in Ham's F12 growth media (ThermoFisher #10-080-CM) supplemented with 10% donor bovine serum (Gemini Bio-Products #100-506), 100 U/mL penicillin; 100 ug/mL streptomycin, 2 mM L-glutamine (Gemini Bio-Products #400-110) and 0.2 mg/mL hygromycin B (GoldBio #31282-04-9). The cells are cultured at 37° C., 5% CO2 and 95% humidity. cAMP is measured with HTRF dynamic cAMP assay (Cisbio. #62AM5PEJ) per manufacturer's instructions. […] The cells are incubated for 20 minutes at 37° C. (the final concentration of the compounds of the invention are typically 0-10,000 nM). The cells are treated with 50 μL of lysis buffer (HRTF cAMP kit, Cisbio) and incubated at room temperature for 30 minutes with rotary shaking at 600 rpm, and then diluted with 150 μL of stimulation buffer and shaken for an additional five minutes at 300 rpm. The lysate is transferred to 384-well plates and incubated for 1-24 hours at room temperature, and cAMP accumulation is detected by d2-labeled cAMP and Anti-cAMP-Cryptate. The time-resolved fluorescent signal is read using a m1000 Pro (Tecan) or CLARIOStar (BMG Labtech) microplate reader, where the samples are excited with light at 340 nm and emission light is measured at 620 nm and 665 nm. The data is expressed as a calculation of the fluorescence ratio (665 nm/620 nm). The intracellular cAMP concentrations are calculated by regression to a standard curve and are plotted vs, the concentration of the compounds of the invention. The EC50 of the compounds are calculated using standard methods. All data manipulations are in GraphPad Prism v9 (GraphPad, San Diego, CA).

SST2 = molecular target: T2, SST2 (Homo sapiens, UniProt P30874); assay: PathHunter CHO-K1 SST2 Internalization Assay; details: PathHunter CHO-K1 SST2 cells; 90 min at 37 C; luminescence; read-out: Internalization EC50
T2 construct: host or cells: PathHunter CHO-K1 SST2 cells
Method: NDCs of the present invention were assessed in vitro using the human PathHunter CHO-K1 SST2 β-arrestin2 and PathHunter CHO-K1 SST2 Internalization Assays from DiscoverX. The CHO-K cells were seeded in 20 μLs of cell culture medium in a white-walled 384 well tissue culture-compatible plate at a density of 2500 cells/well. After a 48-hour incubation, cells were treated with 5 μLs of a 1:3 serially diluted SST2 NDC prepared at 5× concentration with a final top compound concentration of 10 uM for 90 min at 37 C and in 5% CO2. 11 dilutions were tested as well as one treatment that was compound free. After incubation, the media containing treatments were discarded and 20 μL of a working solution of Beta-Glo from Promega Beta-Go Assay System was added to each well. The plate was then incubated for 60 min at room temperature in the dark. Luminescence was measured using a Tecan plate reader. IC50 curves were generated using the nonlinear regression analysis (four-parameters) with GraphPad Prism 9. Results were the average of duplicates and are corrected for background.

[2] = test system: NCI-H524 human small cell lung cancer cells; assay: H524 assay: inhibition of cell proliferation (CellTiter Glo); details: 2 h treatment, washout, additional 70 h incubation
Method: NDCs of the present invention were assessed in an in vitro assay evaluating the inhibition of cell proliferation. NCI-H524 (ATCC) human small cell lung cancer cells were plated in 96-well V-bottom plates (Costar) at a concentration of 5,000 cells/well. 24 h later, the cells were treated for 2 h with a NDC. NDC starting dose was 1 uM and two-fold serial dilutions were done for a total of 11 points. After 2 h of treatment, cells were spun down, and the drug-containing media was removed, and fresh complete media was added and used to resuspend the cells, which were spun again. After removal of the media, the cells were resuspended in complete medium and incubated for an additional 70 h. Cell proliferation was assessed using the CellTiter Glo Assay according to the standard protocol (Promega). Luminescence was measured using a TECAN plate reader. Percent proliferation inhibition was calculated using the following formula: % inhibition=(Luminescence Control−Luminescence Treatment)/Luminescence Control*100. IC50 curves were generated using the nonlinear regression analysis (four-parameter) with GraphPad Prism 9.

T2 sequence (P30874 whole entry): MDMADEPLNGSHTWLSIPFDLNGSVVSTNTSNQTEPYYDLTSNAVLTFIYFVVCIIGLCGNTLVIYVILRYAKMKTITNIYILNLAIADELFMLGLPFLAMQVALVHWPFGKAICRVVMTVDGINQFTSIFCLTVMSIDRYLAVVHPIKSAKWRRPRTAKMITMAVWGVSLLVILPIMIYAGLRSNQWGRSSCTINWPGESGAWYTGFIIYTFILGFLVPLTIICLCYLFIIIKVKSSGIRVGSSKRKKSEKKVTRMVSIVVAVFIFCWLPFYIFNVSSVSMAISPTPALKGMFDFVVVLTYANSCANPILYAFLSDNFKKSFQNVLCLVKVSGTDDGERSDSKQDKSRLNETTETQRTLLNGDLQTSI
T1 sequence (P30874 whole entry): as above

Row | Structure (SMILES) | EC50 [1] [nM] | EC50 (SST2) [nM] | EC50 [2] [nM]
1 | CC[C@H](C)[C@@H]([C@@H](CC(=O)N1CCC[C@H]1[C@H](OC)[C@@H](C)C(=O)N[C@H](C)[C@@H](O)c1ccccc1)OC)N(C)C(=O)[C@@H](NC(=O)[C@H](C(C)C)N(C)C(=O)OCc1ccc(NC(=O)[C@H](CCCNC(N)=O)NC(=O)[C@@H](NC(=O)C2(NC(=O)CCCC(=O)N(C)CC(=O)NCCNc3ncc(-c4cc(C)cc(F)c4)c(N4CCC(N)CC4)c3-c3nc4ccc(Cl)cc4[nH]3)CCN(CC(=O)O)CC2)C(C)C)cc1)C(C)C [Compound 173] | 0.24 | 19 | 52
2 | CC[C@H](C)[C@@H]([C@@H](CC(=O)N1CCC[C@H]1[C@H](OC)[C@@H](C)C(=O)N[C@H](C)[C@@H](O)c1ccccc1)OC)N(C)C(=O)[C@@H](NC(=O)[C@H](C(C)C)N(C)C(=O)OCc1ccc(NC(=O)[C@H](CCCNC(N)=O)NC(=O)[C@@H](NC(=O)c2cc(NC(=O)C[C@@H](N)C(=O)NCCOCCC(=O)NCCNc3ncc(-c4cc(C)cc(F)c4)c(N4CCC(N)CC4)c3-c3nc4ccc(Cl)cc4[nH]3)cc(C(=O)NCC(=O)O)c2)C(C)C)cc1)C(C)C [Compound 156] | 0.28 | 14 | 140
3 | CC[C@H](C)[C@@H]([C@@H](CC(=O)N1CCC[C@H]1[C@H](OC)[C@@H](C)C(=O)N[C@H](C)[C@@H](O)c1ccccc1)OC)N(C)C(=O)[C@@H](NC(=O)[C@H](C(C)C)N(C)C(=O)OCc1ccc(NC(=O)[C@H](CCCNC(N)=O)NC(=O)[C@@H](NC(=O)C[C@@H](N)C(=O)NCCOCCNC(=O)c2cc(NCCOCCC(=O)NCCNc3ncc(-c4cc(C)cc(F)c4)c(N4CCC(N)CC4)c3-c3nc4cc(F)cc(OC)c4[nH]3)cc(C(=O)NCC(=O)O)c2)C(C)C)cc1)C(C)C [Compound 164] | 0.35 | 4.1 | 27
4 | CC[C@H](C)[C@@H]([C@@H](CC(=O)N1CCC[C@H]1[C@H](OC)[C@@H](C)C(=O)N[C@H](C)[C@@H](O)c1ccccc1)OC)N(C)C(=O)[C@@H](NC(=O)[C@H](C(C)C)N(C)C(=O)OCc1ccc(NC(=O)[C@H](C)NC(=O)[C@@H](NC(=O)CCOCCC(=O)N(C)CC(=O)NCCNc2ncc(-c3cc(C)cc(F)c3)c(N3CCC(N)CC3)c2-c2nc3ccc(Cl)cc3[nH]2)C(C)C)c(O[C@@H]2O[C@H](C(=O)NCCO)[C@@H](O)[C@H](O)[C@H]2O)c1)C(C)C [Compound 206] | 0.12 | 4.5 | 14
5 | CC[C@H](C)[C@@H]([C@@H](CC(=O)N1CCC[C@H]1[C@H](OC)[C@@H](C)C(=O)N[C@H](C)[C@@H](O)c1ccccc1)OC)N(C)C(=O)[C@@H](NC(=O)[C@H](C(C)C)N(C)C(=O)OCc1ccc(NC(=O)[C@H](CCCNC(N)=O)NC(=O)[C@@H](NC(=O)c2cc(OCCOCCC(=O)NCCNc3ncc(-c4cc(C)cc(F)c4)c(N4CCC(N)CC4)c3-c3nc4ccc(Cl)cc4[nH]3)cc(C(=O)NCC(=O)O)c2)C(C)C)cc1)C(C)C [Compound 160] | 0.25 | 7.4 | 100
6 | CC[C@H](C)[C@@H]([C@@H](CC(=O)N1CCC[C@H]1[C@H](OC)[C@@H](C)C(=O)N[C@H](C)[C@@H](O)c1ccccc1)OC)N(C)C(=O)[C@@H](NC(=O)[C@H](C(C)C)N(C)C(=O)OCc1ccc(NC(=O)[C@H](CCCNC(N)=O)NC(=O)[C@@H](NC(=O)C2(C(=O)NCCOCCC(=O)NCCNc3ncc(-c4cc(C)cc(F)c4)c(N4CCC(N)CC4)c3-c3nc4ccc(Cl)cc4[nH]3)CCC2)C(C)C)cc1C(=O)NCCN)C(C)C [Compound 81] | 0.094 | 10 | 2
7 | CC[C@H](C)[C@@H]([C@@H](CC(=O)N1CCC[C@H]1[C@H](OC)[C@@H](C)C(=O)N[C@H](C)[C@@H](O)c1ccccc1)OC)N(C)C(=O)[C@@H](NC(=O)[C@H](C(C)C)N(C)C(=O)OCc1ccc(NC(=O)[C@H](C)NC(=O)[C@@H](NC(=O)CCOCCOCCOCCOCCC(=O)NCCNc2ncc(-c3cc(C)cc(F)c3)c(N3CCC(N)CC3)c2-c2cc3ccc(Cl)cc3[nH]2)C(C)C)c(O[C@@H]2O[C@H](C(=O)O)[C@@H](O)[C@H](O)[C@H]2O)c1)C(C)C [Compound 112] | 0.12 | 8.4 | 10
8 | CC[C@H](C)[C@@H]([C@@H](CC(=O)N1CCC[C@H]1[C@H](OC)[C@@H](C)C(=O)N[C@H](C)[C@@H](O)c1ccccc1)OC)N(C)C(=O)[C@@H](NC(=O)[C@H](C(C)C)N(C)C(=O)OCc1ccc(NC(=O)[C@H](CCCNC(N)=O)NC(=O)[C@@H](NC(=O)[C@H](Cc2c[nH]cn2)NC(=O)CCOCCC(=O)NCCNc2ncc(-c3cc(C)cc(F)c3)c(N3CCC(N)CC3)c2-c2nc3ccc(Cl)cc3[nH]2)C(C)C)c(O[C@@H]2C[C@H](C(=O)NCC(=O)O)[C@@H](O)[C@H](O)[C@H]2O)c1)C(C)C [Compound 212] | 0.088 | 4.5 | 20
9 | CC[C@H](C)[C@@H]([C@@H](CC(=O)N1CCC[C@H]1[C@H](OC)[C@@H](C)C(=O)N[C@H](C)[C@@H](O)c1ccccc1)OC)N(C)C(=O)[C@@H](NC(=O)[C@H](C(C)C)N(C)C(=O)OCc1ccc(NC(=O)[C@H](CCCNC(N)=O)NC(=O)[C@@H](NC(=O)c2cc(NCCOCCC(=O)NCCNc3ncc(-c4cc(C)cc(F)c4)c(N4CCC(N)CC4)c3-c3nc4ccc(F)cc4[nH]3)cc(C(=O)NCC(=O)O)c2)C(C)C)cc1)C(C)C [Compound 165] | 0.5 | 10 | 90
10 | CC[C@H](C)[C@@H]([C@@H](CC(=O)N1CCC[C@H]1[C@H](OC)[C@@H](C)C(=O)N[C@H](C)[C@@H](O)c1ccccc1)OC)N(C)C(=O)[C@@H](NC(=O)[C@H](C(C)C)N(C)C(=O)OCc1ccc(NC(=O)[C@H](C)NC(=O)[C@@H](NC(=O)CCOCCC(=O)NCCNc2ncc(-c3cncc(C)c3)c(N3CCC(N)CC3)c2-c2nc3ccc(Cl)cc3[nH]2)C(C)C)c(O[C@@H]2O[C@H](C(=O)O)[C@@H](O)[C@H](O)[C@H]2O)c1)C(C)C [Compound 129] | 190 | 960 | 3000
11 | CC[C@H](C)[C@@H]([C@@H](CC(=O)N1CCC[C@H]1[C@H](OC)[C@@H](C)C(=O)N[C@H](C)[C@@H](O)c1ccccc1)OC)N(C)C(=O)[C@@H](NC(=O)[C@H](C(C)C)N(C)C(=O)OCc1ccc(NC(=O)[C@H](CCCNC(N)=O)NC(=O)[C@@H](NC(=O)C[C@@H](N)C(=O)NCCOCCC(=O)NCCNc2ncc(-c3cc(C)cc(F)c3)c(N3CCC(N)CC3)c2-c2nc3ccc(Cl)cc3[nH]2)C(C)C)cc1)C(C)C [Compound 181] | 0.38 | 3.4 | 190
